Key:
[1] = tested on: Dnmt3a; Alpk1 deficient HSCs; test: Serial colony replating; format: cell-based, mouse
Method: (§1) (A) Heatmap representing gene expression analysis of HSPCs isolated from Dnmt3a^WT or Dnmt3a^KO or Dnmt3a^KO; Alpk1^KO mice treated with either H2O or ADP-heptose for 90 minutes in vitro as determined by RNA-sequencing from three independent replicates (1.5 fold; P<0.05). (B) Gene Set Enrichment Analysis (GSEA) of Dnmt3a^KO cells treated with ADP-heptose versus H2O. […] NES, normalized enrichment score. Absolute enrichment score (ES) and corresponding P value are shown for each pathway. (D) Enrichment of transcription factors was determined with the ENCODE and CHIP Enrichment Analysis (ChEA) libraries using genes that are overexpressed in ADP-heptose-stimulated Dnmt3a^WT versus H2O-stimulated Dnmt3a^WT (left panel) or ADP-heptose-stimulated Dnmt3a^KO versus H2O-stimulated Dnmt3a^KO HSPCs (right panel). (E) Representative flow cytometric profile of EdU+HSCs after ADP-heptose or H2O treatment. […] In each plating, colonies were scored at day 14. […] (L) Colony forming potential of Dnmt3a^WT or Dnmt3a^KO HSPCs was evaluated upon treatment with either vehicle, ADP-heptose, or ADP-heptose and UBE2N inhibitor. (M) CD34+ MDS BM and normal CD34+ BM cells treated with vehicle, ADP-heptose, or ADP-heptose and UBE2N inhibitor were evaluated for colony formation in methylcellulose. […]

Dnmt3a^−/− HSCs = test: Serial colony replating; format: cell-based, mouse; conditions: compared to vehicle
Method: as §1

In the case of `Nc1ncnc2c1ncn2[C@@H]1O[C@H](COP(=O)(O)OP(=O)(O)O[C@@H]2O[C@H]([C@H](O)CO)[C@@H](O)[C@H](O)[C@@H]2O)[C@@H](O)[C@H]1O` [ADP-heptose, ADP-D-glycero-β-D-manno-heptose], the “colony replating response to ADP-heptose” value [1] is reported as “did not respond” and the serial colony formation (Dnmt3a^−/− HSCs) is reported as “significantly increased serial colony formation”.

Source: US20250314644A1, “METHODS COMPRISING DETECTION OF ADP-HEPTOSE” (CHILDREN'S HOSPITAL MEDICAL CENTER, priority 2023, published 2025)
